# Experimental data as given in patent publication US20250109127A1, “METHODS OF USE OF PHENOXYPROPYLAMINE COMPOUNDS TO TREAT DEPRESSION” (Minerva Neurosciences, Inc., priority 2013, published 2025).
# Values joined by “and” are separate entries in the source; they are usually repeats but may differ in a detail not shown here. Equal entries are not always repeated. Structures can show the parent of a compound that is named as a salt.
# Columns and labels:
# [1] = test system: HVA release in the rat prefrontal cortex; assay: Microdialysis: HVA release in prefrontal cortex after I.P. administration; type: in vivo; conditions: for HVA release (% of basal levels) measured in dialysates: individual animals, hydrochloride, 3 mg/kg; for HVA release (% of basal levels) measured in dialysates, MEAN / HVA (% of respective basal) MEAN: n = 8; for HVA (% of respective basal) MEAN: SON-117 group 0.1 mg/kg I.P.
# Protocol: The aim of the study was to evaluate, using microdialysis, the effects of an intraperitoneal (I.P.) administration in rats of three different doses of SON-117 on dopamine and its metabolites, serotonin and its metabolite (5-HIAA), and norepinephrine levels in prefrontal cortex.
# Thirty-two adult male Wistar rats were used for the whole study (4 groups of eight animals planned for the study, Table 1).
# Surgery was performed on rats weighing about 300 g at the beginning of the experiments. Rats were anaesthetized with Ketamine (50 mg/kg) & Xylazine (15 mg/kg) by intramuscular administration. The animals were placed in a stereotaxic apparatus in the flat-skull position at a constant setting of −3.3 mm between ear bars and the incisor bar. The animals were treated with a local anesthesic (xylocaine 1%, Astra Zeneca) and an analgesic (Temgesic, from Schering Plough, 0.05 mg/kg, s.c.). A rostrocaudal midline incision was made with a lancet to expose the dorsal skull surface. The “stereotaxic zero” was defined by the Bregma in accordance with Paxinos and Watson's atlas (1986). A hole was drilled in the skull with a drill and the meninges were pierced with a sterile needle to implant a CMA12 guide cannula which later received the dialysis probe.
# Coordinates used for implanting guide cannula in prefrontal cortex from Bregma were anteroposterior 3.7 mm, mediolateral 0.8 mm, and dorsoventral −2 mm (top of the probe was at −5 mm). The guide cannula was fixed to the skull with two stainless steel screws (1.88 mm outside diameter) anchored. An application of dental cement was added. A plastic collar allowed each animal to be tethered to a Swivel assembly of the CMA 120 awake animal system. Following surgery, rats were kept in individual cages and allowed to recover for a minimum of 3-5 days before the experimentation. The rats were handled and put in plastic bowl for 10 min at least every day to habituate the animals to their new environment for the dialysis. An I.P. administration with saline was also performed every day.
# Dialysis probes (CMA12/3 mm, membrane, 20 kD cut-off, Carnegie Medicine, Stockholm, Sweden), were carefully washed before inserting into the guide cannula. The wash was performed with the artificial cerebrospinal fluid (aCSF) medium (NaCl 147 mM, KCl 2.7 mM, CaCl2 1.2 mM, MgCl2 0.85 mM) at room temperature. The dialysis system was then equilibrated at 20° C. at a perfusion rate of 1 μl/min with a Carnegie pump (CMA100). All catheters (FEP tubing, internal volume of 1.2 μl/10 cm, and tubing adaptors) used for microdialysis were treated in the same conditions.
# The probes duly prepared were inserted into the guide cannula and the CMA120 Swivel assembly secured to the animal using a plastic collar. Flow through the dialysis probe with aCSF was maintained at a rate of 1 μl/min during the whole experimentation. The first four fractions (corresponding to 2 hours) were discarded to avoid the effects of parenchymal disturbance and to ensure that an approximate steady-state level was reached. Fractions were then collected over a period of 8.5 h during which time the animals remained quiet. The dialysates were automatically collected with an autosampler (microfraction collector CMA 140, Carnegie Medicin) and stored at −80° C. until analysis. […] Perfusion was then maintained for 7 hours with aCSF. The dialysates (30 μl) were collected into 300 μl vials, transferred into dry ice and then kept frozen (−80° C.) until analysis. Frozen samples were shipped to a partner for analysis. At the end of the microdialysis study, a PBS with colored ink was perfused through the probe in order to visualize the dialyzed area.
# Catecholamine assay: Concentrations of dopamine, DOPAC, HVA, 5-HIAA, 5-HT, and norepinephrin were determined for each sample by HPLC coupled with electrochemical detection.
# 5-HTT = 5-HTT (Homo sapiens, UniProt P31645); assay: Receptor binding, 5-HTT
# Sequence of 5-HTT (P31645 whole entry, species assumed): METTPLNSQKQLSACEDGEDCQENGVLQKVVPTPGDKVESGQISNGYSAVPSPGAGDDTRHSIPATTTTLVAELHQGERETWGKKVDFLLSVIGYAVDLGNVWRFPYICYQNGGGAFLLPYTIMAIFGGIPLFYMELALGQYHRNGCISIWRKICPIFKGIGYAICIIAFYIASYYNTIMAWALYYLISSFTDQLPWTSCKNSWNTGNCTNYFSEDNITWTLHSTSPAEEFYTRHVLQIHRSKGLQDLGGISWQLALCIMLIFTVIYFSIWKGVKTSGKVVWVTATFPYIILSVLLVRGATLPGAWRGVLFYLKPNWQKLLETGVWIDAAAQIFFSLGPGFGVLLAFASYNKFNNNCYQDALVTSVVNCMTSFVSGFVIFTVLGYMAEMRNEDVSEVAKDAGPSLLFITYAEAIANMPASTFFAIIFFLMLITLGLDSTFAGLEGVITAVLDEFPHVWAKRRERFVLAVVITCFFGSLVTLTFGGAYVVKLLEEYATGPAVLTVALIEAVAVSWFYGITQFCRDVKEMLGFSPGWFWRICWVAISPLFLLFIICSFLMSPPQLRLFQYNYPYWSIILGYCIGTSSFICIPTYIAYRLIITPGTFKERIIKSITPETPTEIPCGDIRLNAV
# subjective sleep = assay: Leeds Sleep Evaluation Questionnaire (LSEQ); type: in vivo, human; conditions: SON-117 1 mg; after single administration, sustained up to day 16
# [2] = Pharmacokinetic study, plasma concentration on day 1 and day 14; type: in vivo; conditions: day 1 and day 14 after dosing with SON-117
# Description: were examined in pharmacokinetic studies.
# FIG. 34 illustrates the plasma concentration of SON-117 as a function of time on day 1 after dosing with SON-117. FIG. 35 illustrates the plasma concentration of SON-117 as a function of time on day 14 after dosing with SON˜117.
# FIG. 36 illustrates the plasma concentration of the M1 metabolite of SON-117 as a function of time on day 1 after dosing with SON-117. FIG. 37 illustrates the plasma concentration of the M1 metabolite of SON-117 as a function of time on day 14 after dosing with SON-117.
# [3] = SON-117 3 mg/kg IP, T1 h-T1 h 30
# [4] = SON-117 3 mg/kg IP, T2 h 30-T3 h
# [5] = SON-117 3 mg/kg IP, T2 h-T2 h 30
# [6] = SON-117 3 mg/kg IP, T3 h 30-T4 h
# [7] = SON-117 3 mg/kg IP, T3 h-T3 h 30
# [8] = SON-117 3 mg/kg IP, T4 h 30-T5 h
# [9] = SON-117 3 mg/kg IP, T4 h-T4 h 30
# [10] = SON-117 3 mg/kg IP, T5 h 30-T6 h
# [11] = SON-117 3 mg/kg IP, T5 h-T5 h 30
# [12] = SON-117 3 mg/kg IP, T6 h 30-T7 h
# [13] = SON-117 3 mg/kg IP, T6 h-T6 h 30
compound,measurement,setting,value
"Cc1nnc(-c2cc3c(OC[C@@H](O)CN4CCC(c5ccc(Cl)c(Cl)c5)CC4)cccc3o2)o1 [SON-117, (S)-1-(4-(3,4-dichlorophenyl)piperidino)-3-(2-(5-methyl-1,3,4-oxadiazol-2-yl)benzo(b)furan-4-yloxy)-2-propanol hydrochloride]",HVA release (% of basal levels) measured in dialysates,"[1]; SON-117 3 mg/kg IP, T1 h 30-T2 h",84.71 % of basal levels and 105.56 % of basal levels and 94.73 % of basal levels and 137.50 % of basal levels and 83.65 % of basal levels and 91.30 % of basal levels and 115.23 % of basal levels and 135.51 % of basal levels
same,"HVA release (% of basal levels) measured in dialysates, MEAN",[1]; [3],103.62 % of basal levels
same,HVA release (% of basal levels) measured in dialysates,[1]; [3],91.12 % of basal levels and 84.36 % of basal levels and 104.08 % of basal levels and 126.08 % of basal levels and 106.58 % of basal levels and 89.86 % of basal levels and 137.31 % of basal levels and 89.55 % of basal levels
same,"HVA release (% of basal levels) measured in dialysates, MEAN",[1]; [4],102.12 % of basal levels
same,HVA release (% of basal levels) measured in dialysates,[1]; [4],105.21 % of basal levels and 84.02 % of basal levels and 95.14 % of basal levels and 119.75 % of basal levels and 76.92 % of basal levels and 96.18 % of basal levels and 146.40 % of basal levels and 93.34 % of basal levels
same,"HVA release (% of basal levels) measured in dialysates, MEAN",[1]; [5],98.10 % of basal levels
same,HVA release (% of basal levels) measured in dialysates,[1]; [5],100.40 % of basal levels and 90.71 % of basal levels and 80.00 % of basal levels and 109.73 % of basal levels and 85.44 % of basal levels and 89.46 % of basal levels and 133.10 % of basal levels and 95.93 % of basal levels
same,"HVA release (% of basal levels) measured in dialysates, MEAN",[1]; [6],98.25 % of basal levels
same,HVA release (% of basal levels) measured in dialysates,[1]; [6],101.22 % of basal levels and 90.35 % of basal levels and 83.39 % of basal levels and 123.68 % of basal levels and 80.06 % of basal levels and 94.85 % of basal levels and 114.56 % of basal levels and 97.90 % of basal levels
same,"HVA release (% of basal levels) measured in dialysates, MEAN",[1]; [7],105.01 % of basal levels
same,HVA release (% of basal levels) measured in dialysates,[1]; [7],99.13 % of basal levels and 88.16 % of basal levels and 98.47 % of basal levels and 148.68 % of basal levels and 75.12 % of basal levels and 89.56 % of basal levels and 118.49 % of basal levels and 122.51 % of basal levels
same,"HVA release (% of basal levels) measured in dialysates, MEAN",[1]; [8],92.26 % of basal levels
same,HVA release (% of basal levels) measured in dialysates,[1]; [8],94.88 % of basal levels and 58.87 % of basal levels and 92.33 % of basal levels and 106.33 % of basal levels and 75.16 % of basal levels and 112.83 % of basal levels and 123.56 % of basal levels and 74.10 % of basal levels
same,"HVA release (% of basal levels) measured in dialysates, MEAN",[1]; [9],99.19 % of basal levels
same,HVA release (% of basal levels) measured in dialysates,[1]; [9],97.33 % of basal levels and 77.20 % of basal levels and 84.63 % of basal levels and 137.16 % of basal levels and 71.70 % of basal levels and 91.93 % of basal levels and 127.61 % of basal levels and 105.99 % of basal levels
same,"HVA release (% of basal levels) measured in dialysates, MEAN",[1]; [10],87.32 % of basal levels
same,HVA release (% of basal levels) measured in dialysates,[1]; [10],93.31 % of basal levels and 31.10 % of basal levels and 89.25 % of basal levels and 99.64 % of basal levels and 66.49 % of basal levels and 109.12 % of basal levels and 117.65 % of basal levels and 101.69 % of basal levels
same,"HVA release (% of basal levels) measured in dialysates, MEAN",[1]; [11],101.76 % of basal levels
same,HVA release (% of basal levels) measured in dialysates,[1]; [11],93.67 % of basal levels and 56.56 % of basal levels and 102.66 % of basal levels and 106.92 % of basal levels and 69.24 % of basal levels and 112.81 % of basal levels and 133.42 % of basal levels and 138.83 % of basal levels
same,"HVA release (% of basal levels) measured in dialysates, MEAN",[1]; [12],96.24 % of basal levels
same,HVA release (% of basal levels) measured in dialysates,[1]; [12],84.70 % of basal levels and 71.14 % of basal levels and 87.80 % of basal levels and 117.29 % of basal levels and 74.11 % of basal levels
same,"HVA release (% of basal levels) measured in dialysates, MEAN",[1]; [13],88.31 % of basal levels
same,HVA release (% of basal levels) measured in dialysates,[1]; [13],71.80 % of basal levels and 62.19 % of basal levels and 96.42 % of basal levels and 114.78 % of basal levels and 75.15 % of basal levels and 95.54 % of basal levels and 102.27 % of basal levels
same,"HVA release (% of basal levels) measured in dialysates, MEAN","[1]; SON-117 3 mg/kg IP, T-30 min-T0 (pre-administration)",97.66 % of basal levels
same,"HVA release (% of basal levels) measured in dialysates, MEAN","[1]; SON-117 3 mg/kg IP, T-1 h 30-T-1 h (pre-administration)",99.26 % of basal levels
same,"HVA release (% of basal levels) measured in dialysates, MEAN","[1]; SON-117 3 mg/kg IP, T-1 h-T-30 min (pre-administration)",103.08 % of basal levels
same,"HVA concentration in prefrontal cortex, significant slight increase","[1]; SON-117 3 mg/kg IP, at 3.5 h",114%
same,"HVA, difference to the citalopram group (two-way ANOVA)","[1]; SON-117 at the three doses tested, in function of time",no significant differences
same,HVA (% of respective basal) MEAN,[1]; T0-T30 min,101.53 % of respective basal
same,HVA (% of respective basal) MEAN,[1]; T30-T1 h,118.07 % of respective basal
same,HVA (% of respective basal) MEAN,[1]; T1 h 30-T2 h,112.1 % of respective basal
same,HVA (% of respective basal) MEAN,[1]; T1 h-T1 h 30,139.45 % of respective basal
same,HVA (% of respective basal) MEAN,[1]; T2 h 30-T3 h,111.13 % of respective basal
same,HVA (% of respective basal) MEAN,[1]; T2 h-T2 h 30,107.76 % of respective basal
same,HVA (% of respective basal) MEAN,[1]; T3 h 30-T4 h,113.38 % of respective basal
same,HVA (% of respective basal) MEAN,[1]; T3 h-T3 h 30,106.61 % of respective basal
same,HVA (% of respective basal) MEAN,[1]; T4 h 30-T5 h,102.76 % of respective basal
same,HVA (% of respective basal) MEAN,[1]; T4 h-T4 h 30,127.17 % of respective basal
same,HVA (% of respective basal) MEAN,[1]; T5 h 30-T6 h,109.97 % of respective basal
same,HVA (% of respective basal) MEAN,[1]; T5 h-T5 h 30,112.73 % of respective basal
same,HVA (% of respective basal) MEAN,[1]; T6 h 30-T7 h,113.53 % of respective basal
same,HVA (% of respective basal) MEAN,[1]; T6 h-T6 h 30,108.85 % of respective basal
same,HVA (% of respective basal) MEAN,[1]; T-30 min-T0 (before administration),101.64 % of respective basal
same,HVA (% of respective basal) MEAN,[1]; T-1 h 30-T-1 h (before administration),97.88 % of respective basal
same,HVA (% of respective basal) MEAN,[1]; T-1 h-T-30 min (before administration),100.48 % of respective basal
same,"affinity, 5-HTT binding",5-HTT,high affinity
same,LSEQ getting to sleep,subjective sleep,easier
same,LSEQ quality of sleep,subjective sleep,improved
same,"AUC, dependence on dose",[2],dose-proportional increase
same,"Cmax, dependence on dose",[2],dose-proportional increase
